Laboratory results as given in PMC6121230 (International Journal of Molecular Sciences, 2018).

Legend:
Details in all cases: 50 mM Tris pH 8.0; lipid monolayer, interfacial binding (not a 1:1 site)
VpPLD-(His)6-WT = test system: VpPLD-(His)6-WT
(His)6-VpPLD-WT [1] = test system: (His)6-VpPLD-WT
(His)6-VpPLD-Δ451-487 = test system: (His)6-VpPLD-Δ451-487
(His)6-VpPLD-WT [2] = test system: (His)6-VpPLD-WT; remark: listed apart in the source
(His)6-VpPLD-Δ469-487 = test system: (His)6-VpPLD-Δ469-487
(His)6-VpPLD-Δ434-487 = test system: (His)6-VpPLD-Δ434-487
VpPLD-(His)6-Δ1-34 = test system: VpPLD-(His)6-Δ1-34
VpPLD-(His)6-Δ1-25 = test system: VpPLD-(His)6-Δ1-25

Structure (SMILES): CCCCCCCCCCCCCC(=O)OC[C@H](COP(=O)(O)OCC(O)CO)OC(=O)CCCCCCCCCCCCC (mixture of isomers) [DMPG, 1,2-Dimyristoyl-sn-glycero-3-phospho-rac-glyceol]
- MIP (VpPLD-(His)6-WT): 26.8 ± 0.9 mN m^-1
- synergy factor a ((His)6-VpPLD-WT [1]): 0.29 ± 0.03

Structure (SMILES): CCCCCCCCCCCCCC(=O)OC[C@H](COP(=O)([O-])OCC[N+](C)(C)C)OC(=O)CCCCCCCCCCCCC [DMPC, 1,2-Dimyristoyl-sn-glycero-3-phosphocholine]
- MIP (VpPLD-(His)6-WT): 37.4 ± 1.3 mN m^-1
- MIP ((His)6-VpPLD-Δ451-487): 34.9 ± 3.7 mN m^-1
- MIP ((His)6-VpPLD-WT [2]): 29.6 ± 2.6 mN m^-1
- MIP ((His)6-VpPLD-Δ469-487): 29.8 ± 1.8 mN m^-1

Structure (SMILES): CCCCCCCCCCCCCC(=O)OC[C@H](COP(=O)(O)OCCN)OC(=O)CCCCCCCCCCCCC [DMPE, 1,2-Dimyristoyl-sn-glycero-3-phosphoethanolamine]
- MIP (VpPLD-(His)6-WT): 29.8 ± 2.8 mN m^-1
- MIP ((His)6-VpPLD-Δ434-487): 45.1 ± 2.8 mN m^-1
- MIP ((His)6-VpPLD-WT [2]): 32.8 ± 3.7 mN m^-1
- MIP (VpPLD-(His)6-Δ1-34): 47.8 ± 8.7 mN m^-1
- MIP (VpPLD-(His)6-Δ1-25): 39.4 ± 6.2 mN m^-1
- MIP ((His)6-VpPLD-Δ469-487): 26.2 ± 2.7 mN m^-1

Structure (SMILES): CCCCCCCCCCCCCC(=O)OC[C@H](COP(=O)(O)OC[C@H](N)C(=O)O)OC(=O)CCCCCCCCCCCCC [DMPS, 1,2-Dimyristoyl-sn-glycero-3-phospho-L-serine]
- MIP (VpPLD-(His)6-WT): 38.5 ± 2.7 mN m^-1
- MIP ((His)6-VpPLD-Δ434-487): 40.4 ± 4.6 mN m^-1
- MIP ((His)6-VpPLD-Δ451-487): 36.4 ± 2.1 mN m^-1
- MIP ((His)6-VpPLD-WT [2]): 34.8 ± 0.6 mN m^-1
- MIP (VpPLD-(His)6-Δ1-34): 36.5 ± 2.7 mN m^-1
- MIP (VpPLD-(His)6-Δ1-25): 30.4 ± 3.2 mN m^-1
